Experimental data: EP0726261A1, “Herbidical 1,2,4 thiadiazoles” (American Cyanamid Company, priority 1995, dated 1996)

How the values were obtained:
Assay type in all cases: in vivo
Chenopodium album [1] = experiment: Postemergence herbicidal activity (Example 67); details: pos, 800 g/ha
Method: (§1) Herbicidal evaluation of compounds of the invention is conducted on the following plant species:
(§2) The soil is a prepared horticultural substrate containing 30% peat, 20% volcanic clay, 30% bark residues and 20% polyamide/styromull in a 1:3 mixture with loamy sand. Test solutions are prepared by dissolving the test compound in acetone containing 0.5% of an alkylphenol/ethylene oxide condensate under the trademark, TRITON® X-155, and diluting with water as needed. The test solutions are applied as a spray to the 3-6 week old seedling plants at dose rates corresponding to 800g/ha in a volume equivalent to 400 L/ha. A pneumatic spraying device employing a Teejet nozzle SS 8002E operating at 3 bar is used for a predetermined time. After spraying, the treated plants are placed on greenhouse benches and cared for in a manner commensurate with conventional greenhouse practice. After 10-21 days, the treated plants are evaluated and rated according to the rating system provided below.

Zea mays [2] = experiment: Postemergence herbicidal activity (Example 67); details: pos, 800 g/ha
Method: as §1, §2

Setaria viridis [3] = experiment: Postemergence herbicidal activity (Example 67); details: pos, 800 g/ha
Method: as §1, §2

Triticum aestivum [4] = experiment: Postemergence herbicidal activity (Example 67); details: pos, 800 g/ha
Method: as §1, §2

Hordeum vulgare [5] = experiment: Postemergence herbicidal activity (Example 67); details: pos, 800 g/ha
Method: as §1, §2

Amaranthus retroflexus [6] = experiment: Postemergence herbicidal activity (Example 67); details: pos, 800 g/ha
Method: as §1, §2

Abutilon theophrasti [7] = experiment: Postemergence herbicidal activity (Example 67); details: pos, 800 g/ha
Method: as §1, §2

Alopecurus myosuroides [8] = experiment: Postemergence herbicidal activity (Example 67); details: pos, 800 g/ha
Method: as §1, §2

Ipomoea hederacea [9] = experiment: Postemergence herbicidal activity (Example 67); details: pos, 800 g/ha
Method: as §1, §2

Helianthus annuus [10] = experiment: Postemergence herbicidal activity (Example 67); details: pos, 800 g/ha
Method: as §1, §2

Galium aparine [11] = experiment: Postemergence herbicidal activity (Example 67); details: pos, 800 g/ha
Method: as §1, §2

Veronica persica [12] = experiment: Postemergence herbicidal activity (Example 67); details: pos, 800 g/ha
Method: as §1, §2

Chenopodium album [13] = experiment: Preemergence herbicidal activity (Example 67); details: pre, 800 g/ha
Method: as §1, §2
(§3) The soil surface is then sprayed with test solutions as described in the postemergence evaluation hereinabove. After spraying, the treated cups are placed on greenhouse benches and cared for in the manner commensurate with conventional greenhouse practice. About 1-3 weeks after treatment the cups are evaluated and rated according to the rating system provided hereinabove.

Zea mays [14] = experiment: Preemergence herbicidal activity (Example 67); details: pre, 800 g/ha
Method: as §1, §2, §3

Amaranthus retroflexus [15] = experiment: Preemergence herbicidal activity (Example 67); details: pre, 800 g/ha
Method: as §1, §2, §3

Abutilon theophrasti [16] = experiment: Preemergence herbicidal activity (Example 67); details: pre, 800 g/ha
Method: as §1, §2, §3

Ipomoea hederacea [17] = experiment: Preemergence herbicidal activity (Example 67); details: pre, 800 g/ha
Method: as §1, §2, §3

Helianthus annuus [18] = experiment: Preemergence herbicidal activity (Example 67); details: pre, 800 g/ha
Method: as §1, §2, §3

Galium aparine [19] = experiment: Preemergence herbicidal activity (Example 67); details: pre, 800 g/ha
Method: as §1, §2, §3

Veronica persica [20] = experiment: Preemergence herbicidal activity (Example 67); details: pre, 800 g/ha
Method: as §1, §2, §3

Alopecurus myosuroides [21] = experiment: Preemergence herbicidal activity (Example 67); details: pre, 800 g/ha
Method: as §1, §2, §3

Triticum aestivum [22] = experiment: Preemergence herbicidal activity (Example 67); details: pre, 800 g/ha
Method: as §1, §2, §3

Setaria viridis [23] = experiment: Preemergence herbicidal activity (Example 67); details: pre, 800 g/ha
Method: as §1, §2, §3

Hordeum vulgare [24] = experiment: Preemergence herbicidal activity (Example 67); details: pre, 800 g/ha
Method: as §1, §2, §3

Row | SMILES | CHE AL rating (Chenopodium album [1]) | ZEA MX rating (Zea mays [2]) | SET VI rating (Setaria viridis [3]) | TRZ AW rating (Triticum aestivum [4]) | HOR VW rating (Hordeum vulgare [5]) | AMA RE rating (Amaranthus retroflexus [6]) | ABU TH rating (Abutilon theophrasti [7]) | ALO MY rating (Alopecurus myosuroides [8]) | IPO HE rating (Ipomoea hederacea [9]) | HEL AN rating (Helianthus annuus [10]) | GAL AP rating (Galium aparine [11]) | VER PE rating (Veronica persica [12]) | CHE AL rating (Chenopodium album [13]) | ZEA MX rating (Zea mays [14]) | AMA RE rating (Amaranthus retroflexus [15]) | ABU TH rating (Abutilon theophrasti [16]) | IPO HE rating (Ipomoea hederacea [17]) | HEL AN rating (Helianthus annuus [18]) | GAL AP rating (Galium aparine [19]) | VER PE rating (Veronica persica [20]) | further results
1 | COc1ccc(-c2nc(C(=O)NC(C)c3cccs3)ns2)cc1 (racemic) [Example 51, (R/S)-5-(4-Methoxyphenyl)-[1,2,4]thiadiazole-3-carboxylic acid, [1-(2-thienyl)ethyl]amide] | 4 (30-44%) | 5 (45-64%) | 8 (91-99%) | 3 (16-29%) | 5 (45-64%) | 4 (30-44%) | 6 (65-79%) | 5 (45-64%) | 8 (91-99%) | 8 (91-99%) | 6 (65-79%) | 8 (91-99%) | 0 | 0 | 5 (45-64%) | 3 (16-29%) | 0 | 1 (1-5%) | 0 | 0 | ALO MY rating (Alopecurus myosuroides [21]): 3 (16-29%); TRZ AW rating (Triticum aestivum [22]): 2 (6-15%); SET VI rating (Setaria viridis [23]): 0; HOR VW rating (Hordeum vulgare [24]): 2 (6-15%)
2 | O=C(NC1CCCc2ccccc21)c1nc(-c2ccccc2F)ns1 (racemic) [Example 53] | 0 | 0 | 5 (45-64%) | 2 (6-15%) | 2 (6-15%) | 0 | 0 | 1 (1-5%) | 2 (6-15%) | 0 | 2 (6-15%) | 0 | 0 | 0 | 3 (16-29%) | 0 | 0 | 0 | 0 | 6 (65-79%) | ALO MY rating (Alopecurus myosuroides [21]): 0; TRZ AW rating (Triticum aestivum [22]): 1 (1-5%); SET VI rating (Setaria viridis [23]): 0; HOR VW rating (Hordeum vulgare [24]): 0
3 | COc1ccc(-c2nsc(C(=O)NC3CCCc4ccccc43)n2)cc1 (racemic) [Example 54] | 2 (6-15%) | 4 (30-44%) | 3 (16-29%) | 1 (1-5%) | 3 (16-29%) | 0 | 2 (6-15%) | 2 (6-15%) | 2 (6-15%) | 4 (30-44%) | 3 (16-29%) | 0 | 0 | 0 | 0 | 0 | 0 | 0 | 0 | 0 | ALO MY rating (Alopecurus myosuroides [21]): 0; TRZ AW rating (Triticum aestivum [22]): 0; SET VI rating (Setaria viridis [23]): 0; HOR VW rating (Hordeum vulgare [24]): 0
